{
  "source": "paper PMC7269146",
  "about": "“Jingzhaotoxin-X, a gating modifier of Kv4.2 and Kv4.3 potassium channels purified from the venom of the Chinese tarantula Chilobrachys jingzhao” (The Journal of Venomous Animals and Toxins Including …, 2020)",
  "system": "Kv1.1",
  "assay": "microelectrode voltage-clamp, Xenopus laevis oocytes, Kv1.1",
  "assay_type": "cell-based",
  "conditions": "10 μM, 300-ms depolarization to +20 mV from -90 mV, pH 7.5, 19-23°C, n = 3",
  "description": "Briefly, plasmids were linearized, and transcription was carried out according to the standardized protocol. Afterwards, the capped cRNAs that encoded the related ion channels were prepared. To conduct transcription in vitro, firstly, NotL was utilized to linearize plasmids pCI that contained both Kv1.1 (Accession: NM_010595.3) and Kv2.1 (Accession: AF026005.1), whereas SphI was adopted to linearize plasmid PcDNA3 containing Kv1.2 (Accession: NM_012970.3) gene. […] Thereafter, the linearized plasmids were used as the templates to synthesize cRNAs in vitro using the large-scale T7 mMESSAGE mMACHINE transcription kit (Ambion, USA).\nA mature female X. laevis was placed on the ice for anesthesia, and then the Xenopus laevis oocytes at stage IV-VI were extracted. Subsequently, those extracted oocytes were treated by collagenase (1 mg/mL) contained within the calcium-depleted ND96 solution (containing 96 mM NaCl, 10 mM HEPES, 1 mM MgCl2, and 2 mM KCl) for defolliculation. […]\nFirstly, the effects of JZTX-X on the isoforms of potassium channels (including Kv1.1-1.3, Kv2.1, as well as Kv4.2-4.3) contained within the X. laevis oocytes were investigated through the microelectrode voltage-clamp approach. […] We also determined the effects of JZTX-X on Ito potassium channels in rat DRG neurons; those current amplitudes were inhibited by 54.4±6.8% when 500 nM JZTX-X was applied (Fig. 3K, n = 5).",
  "note": "Where a SMILES comes first, the peptide text is derived from it. Bridges are numbered along the chain shown (N, C = ends).",
  "data": [
    {"compound": "CC(C)C[C@@H]1NC(=O)[C@H](CCCCN)NC(=O)[C@H](Cc2ccc(O)cc2)NC(=O)[C@@H]2CSSC[C@@H]3NC(=O)[C@H](Cc4ccc(O)cc4)NC(=O)[C@H](Cc4ccccc4)NC(=O)CNC(=O)[C@H](C)NC(=O)[C@H](CSSC[C@H](NC(=O)[C@@H](N)CC(C)C)C(=O)N[C@@H](CO)C(=O)N[C@@H](CCCNC(=N)N)C(=O)N[C@@H](CCC(=O)O)C(=O)NCC(=O)N[C@@H](CCC(=O)O)C(=O)N[C@@H](Cc4ccccc4)C(=O)N2)NC(=O)[C@H](CSSC[C@@H](C(=O)N[C@@H](Cc2ccc(O)cc2)C(=O)N[C@@H](CCCNC(=N)N)C(=O)N[C@@H](CC(N)=O)C(=O)O)NC(=O)[C@H](Cc2c[nH]cn2)NC(=O)[C@H](CC(C)C)NC(=O)[C@H](C(C)C)NC(=O)[C@H](Cc2ccccc2)NC(=O)[C@H](C)NC(=O)[C@H](CCCCN)NC3=O)NC(=O)[C@H](CCCCN)NC(=O)[C@H](CCCNC(=N)N)NC1=O", "note": "[JZTX-X, Jingzhaotoxin-X] (H-LCSREGEFCYKLRKCCAGFYCKAFVLHCYRN-OH; disulfide 2-16, 9-21, 15-28; N-terminus assumed)", "values": [
      {"measurement": "inhibition of Kv1.1 current", "result": "less than 5%"}
    ]}
  ]
}
